These results are taken from PMC7083225 (Cell Chemical Biology, 2020).

As a reminder, the IC50 is the concentration needed to halve the response being measured.

B1: VSD2-NavAb chimeric channel (hNav1.7 VSD2 sequences fused to a NavAb scaffold) (other)
chain: MYLRITNIVESSFFTKFIIYLIVLNTLFMAMEHHPMTEEFKNVLAIGNLVFTGIFAIEIILRIYVHRISFFKDPWSLFDSLIVTLSLVELFLADVEGLSVLRSFRLLRVFRLVTAVPQMRKIVSALISVIPGMLSVIALMTLFFYIFAIMATQLFGERFPEWFGTLGESFYTLFQVMTLESWSMGIVRPLMEVYPYAWVFFIPFIFVVTFVMINLVVAICVDAMAILNQKEEQHIIDEVQSHEDNINNEIIKLREEIVELKELIKTSLKN
notes: not shown: FLAG, N-terminal, kept

The target of one series is human Nav1.7 (Homo sapiens, UniProt Q15858). The series can be described thus: Automated patch-clamp electrophysiology, CHO cells expressing Nav1.7. The series is classed as cell-based. The settings on record: SyncroPatch 768PE automated patch clamp; CHO stable cell line expressing human Nav1.7; holding -120 mV, 10 ms pulse to -10 mV every 2 s; 25 min compound; four-parameter Hill fit, each point n = 3-20; read-out: IC50 (nM), Nav1.7 inhibition. How it is done: The obtained photoprobes were evaluated in a patch-clamp assay using CHO cells expressing Nav1.7 (Figure 1D).
human Nav1.7, sequence (Q15858 1-1977 isoform Q15858-4): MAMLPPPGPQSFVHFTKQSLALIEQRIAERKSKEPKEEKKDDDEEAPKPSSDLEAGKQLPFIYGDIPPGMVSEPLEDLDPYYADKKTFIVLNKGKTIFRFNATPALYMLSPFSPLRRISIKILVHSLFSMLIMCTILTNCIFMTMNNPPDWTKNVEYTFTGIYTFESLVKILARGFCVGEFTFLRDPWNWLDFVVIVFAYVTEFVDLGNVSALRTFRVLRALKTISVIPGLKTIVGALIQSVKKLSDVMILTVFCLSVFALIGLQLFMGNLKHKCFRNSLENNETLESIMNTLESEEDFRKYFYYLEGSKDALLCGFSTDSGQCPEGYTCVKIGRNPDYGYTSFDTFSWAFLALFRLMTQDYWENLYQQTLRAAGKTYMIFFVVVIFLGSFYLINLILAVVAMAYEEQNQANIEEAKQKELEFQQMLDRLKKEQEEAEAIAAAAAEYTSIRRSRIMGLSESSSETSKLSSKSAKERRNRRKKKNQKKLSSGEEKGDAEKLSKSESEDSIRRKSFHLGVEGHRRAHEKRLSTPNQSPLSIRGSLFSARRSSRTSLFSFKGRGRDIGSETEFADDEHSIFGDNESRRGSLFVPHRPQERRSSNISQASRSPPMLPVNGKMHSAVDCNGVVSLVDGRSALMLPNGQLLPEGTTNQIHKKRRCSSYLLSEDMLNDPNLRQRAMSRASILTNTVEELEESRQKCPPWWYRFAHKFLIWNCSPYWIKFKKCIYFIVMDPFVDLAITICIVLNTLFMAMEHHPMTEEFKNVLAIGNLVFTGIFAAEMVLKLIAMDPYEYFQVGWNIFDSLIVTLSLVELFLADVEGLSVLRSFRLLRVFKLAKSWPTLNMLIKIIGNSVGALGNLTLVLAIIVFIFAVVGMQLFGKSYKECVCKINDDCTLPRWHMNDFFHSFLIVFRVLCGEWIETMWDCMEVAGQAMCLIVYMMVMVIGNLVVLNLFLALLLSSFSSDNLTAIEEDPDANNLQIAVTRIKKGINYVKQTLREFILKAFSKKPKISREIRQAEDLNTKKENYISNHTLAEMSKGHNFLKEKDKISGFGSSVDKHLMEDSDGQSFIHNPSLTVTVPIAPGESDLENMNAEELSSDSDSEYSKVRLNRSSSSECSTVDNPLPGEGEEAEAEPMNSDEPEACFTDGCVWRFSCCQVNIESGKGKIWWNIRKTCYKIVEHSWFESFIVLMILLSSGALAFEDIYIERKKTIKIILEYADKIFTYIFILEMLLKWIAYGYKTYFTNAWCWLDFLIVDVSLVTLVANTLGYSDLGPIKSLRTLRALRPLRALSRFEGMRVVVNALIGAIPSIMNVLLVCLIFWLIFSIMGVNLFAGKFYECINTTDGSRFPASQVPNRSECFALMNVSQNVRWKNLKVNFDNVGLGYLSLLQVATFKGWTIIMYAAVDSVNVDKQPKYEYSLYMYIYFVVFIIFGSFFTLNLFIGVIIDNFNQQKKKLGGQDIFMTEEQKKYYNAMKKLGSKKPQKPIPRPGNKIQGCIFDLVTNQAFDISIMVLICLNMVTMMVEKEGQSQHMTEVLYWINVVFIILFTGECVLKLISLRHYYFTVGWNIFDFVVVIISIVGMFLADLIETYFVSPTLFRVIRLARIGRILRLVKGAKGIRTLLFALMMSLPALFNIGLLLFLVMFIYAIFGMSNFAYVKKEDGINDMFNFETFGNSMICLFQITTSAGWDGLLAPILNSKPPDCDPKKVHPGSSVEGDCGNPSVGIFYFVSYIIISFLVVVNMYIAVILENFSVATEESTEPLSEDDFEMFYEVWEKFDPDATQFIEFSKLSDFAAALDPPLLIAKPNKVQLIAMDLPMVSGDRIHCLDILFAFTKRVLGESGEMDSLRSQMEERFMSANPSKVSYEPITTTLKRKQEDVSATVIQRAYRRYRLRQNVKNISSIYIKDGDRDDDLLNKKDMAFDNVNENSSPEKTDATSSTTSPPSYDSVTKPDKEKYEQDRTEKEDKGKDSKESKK
For electrophysiological recordings, the human Nav1.7 (XM_011511618) expressing CHO stable cell line (Anaxon, Switzerland) was cultured in Ham’s F12 medium supplemented with 10% FBS, 2 mM L-Glutamine and required selection antibiotic in 5% CO2 at 37°C.
For all Nav channel recordings, the intracellular solution contained (in mM): 50 CsCl, 60 CsF, 10 NaCl, 20 EGTA and 10 HEPES (pH 7.2, osmolarity 285 mOsm), and extracellular solution contained (in mM): 80 NaCl, 60 NMDG, 4 KCl, 2 CaCl2, 1 MgCl2, 5 glucose and 10 HEPES (pH 7.4, osmolarity 300 mOsm). Automated patch clamp (APC) recordings were performed by using SyncroPatch 768PE (Nanion Technologies, Germany), with PatchController384 V1.5.2 and DataController384 V1.5.0 software for pulse generation and data collection. Currents were sampled at 10 kHz and filtered with Bessel filter. Series resistance was compensated 80% with leak subtraction. Seal resistance (Rseal) was calculated using built-in protocols, and high-quality recoding data was obtained by auto filtering 3 quality control criteria: cell catching (>10 MΩ), seal resistance (>500 MΩ) and baseline current amplitude (>500 pA), and follow with manual inspection. The voltage protocol for all toxin pharmacological tests was set with holding membrane potential (Vm) at -120 mV, eliciting a 10 ms pulse to -10 mV every 2 s, recording 5 min for baseline and followed with examining compound effect for 25 min. Nav channel inhibition was calculated as the percentage of peak current (I) decrease from before compound application (I_Baseline) to the end of 25 minutes compound application (I_End) and both being normalized to the end of experiment full block current (I_Fullblock) using this following equation: Block%=[1−(Iend−Ifullblock/Ibaseline−Ifullblock)]×100%
All Nav channel inhibitions were presented as mean ± standard error of the mean from at least three independent trials.
For orientation: In patch-clamp work, channel activity is measured electrically.
As for `CC[C@H](C)[C@H](NC(=O)[C@H](CCC(N)=O)NC(=O)[C@H](Cc1ccc(O)cc1)NC(=O)[C@H](CCCCN)NC(=O)[C@@H]1CSSC[C@@H]2NC(=O)[C@H](CCC(N)=O)NC(=O)[C@H](CC(=O)O)NC(=O)[C@H](CC(N)=O)NC(=O)[C@H](CO)NC(=O)[C@@H]3CCCN3C(=O)[C@H](CC(N)=O)NC(=O)[C@@H]3CSSC[C@H](NC(=O)[C@H](C(C)C)NC(=O)[C@H](CC(C)C)NC(=O)[C@H](CCCCN)NC(=O)[C@H](CO)NC(=O)[C@H](CO)NC(=O)[C@H](CCCCN)NC(=O)[C@H](CSSC[C@H](NC(=O)[C@@H](N)CCC(=O)O)C(=O)N[C@@H](CC(C)C)C(=O)N[C@@H](CCC(=O)O)C(=O)N[C@@H](CCC4(C)N=N4)C(=O)N[C@@H](Cc4ccccc4)C(=O)N[C@@H](CCCCN)C(=O)N[C@@H](C)C(=O)N3)NC2=O)C(=O)N[C@@H](CO)C(=O)N[C@@H](CCCNC(=N)N)C(=O)N[C@@H](CCCCN)C(=O)N[C@@H]([C@@H](C)O)C(=O)N[C@@H](CCCNC(=N)N)C(=O)N[C@@H](Cc2c[nH]c3ccccc23)C(=O)N1)C(N)=O` [HTMp5], the IC50 stood at 41 nM.

With `CC[C@H](C)[C@H](NC(=O)[C@H](CCC(N)=O)NC(=O)[C@H](Cc1ccc(O)cc1)NC(=O)[C@H](CCCCN)NC(=O)[C@@H]1CSSC[C@@H]2NC(=O)[C@H](CCC(N)=O)NC(=O)[C@H](CC(=O)O)NC(=O)[C@H](CC(N)=O)NC(=O)[C@H](CO)NC(=O)[C@@H]3CCCN3C(=O)[C@H](CC(N)=O)NC(=O)[C@@H]3CSSC[C@H](NC(=O)[C@H](C(C)C)NC(=O)[C@H](CC(C)C)NC(=O)[C@H](CCCCN)NC(=O)[C@H](CO)NC(=O)[C@H](CO)NC(=O)[C@H](CCCCN)NC(=O)[C@H](CSSC[C@H](NC(=O)[C@@H](N)CCC(=O)O)C(=O)N[C@@H](CC(C)C)C(=O)N[C@@H](CCC(=O)O)C(=O)N[C@@H]([C@@H](C)CC)C(=O)N[C@@H](Cc4ccccc4)C(=O)N[C@@H](CCCCN)C(=O)N[C@@H](C)C(=O)N3)NC2=O)C(=O)N[C@@H](CO)C(=O)N[C@@H](CCCNC(=N)N)C(=O)N[C@@H](CCCCN)C(=O)N[C@@H]([C@@H](C)O)C(=O)N[C@@H](CCC2(C)N=N2)C(=O)N[C@@H](Cc2c[nH]c3ccccc23)C(=O)N1)C(N)=O` [HTMp29], the IC50 was 68 nM.

For `CC[C@H](C)[C@H](NC(=O)[C@H](CCC(N)=O)NC(=O)[C@H](Cc1ccc(O)cc1)NC(=O)[C@H](CCCCN)NC(=O)[C@@H]1CSSC[C@@H]2NC(=O)[C@H](CCC(N)=O)NC(=O)[C@H](CC(=O)O)NC(=O)[C@H](CC(N)=O)NC(=O)[C@H](CO)NC(=O)[C@@H]3CCCN3C(=O)[C@H](CC(N)=O)NC(=O)[C@@H]3CSSC[C@H](NC(=O)[C@H](C(C)C)NC(=O)[C@H](CC(C)C)NC(=O)[C@H](CCCCN)NC(=O)[C@H](CO)NC(=O)[C@H](CO)NC(=O)[C@H](CCCCN)NC(=O)[C@H](CSSC[C@H](NC(=O)[C@@H](N)CCC(=O)O)C(=O)N[C@@H](CC(C)C)C(=O)N[C@@H](CCC(=O)O)C(=O)N[C@@H]([C@@H](C)CC)C(=O)N[C@@H](Cc4ccccc4)C(=O)N[C@@H](CCC4(C)N=N4)C(=O)N[C@@H](C)C(=O)N3)NC2=O)C(=O)N[C@@H](CO)C(=O)N[C@@H](CCCNC(=N)N)C(=O)N[C@@H](CCCCN)C(=O)N[C@@H]([C@@H](C)O)C(=O)N[C@@H](CCCNC(=N)N)C(=O)N[C@@H](Cc2c[nH]c3ccccc23)C(=O)N1)C(N)=O` [HTMp7], the IC50 worked out at 40 nM.

As for `CC[C@H](C)[C@H](NC(=O)[C@H](CCC(N)=O)NC(=O)[C@H](Cc1ccc(O)cc1)NC(=O)[C@H](CCCCN)NC(=O)[C@@H]1CSSC[C@@H]2NC(=O)[C@H](CCC(N)=O)NC(=O)[C@H](CC(=O)O)NC(=O)[C@H](CC(N)=O)NC(=O)[C@H](CO)NC(=O)[C@@H]3CCCN3C(=O)[C@H](CC(N)=O)NC(=O)[C@@H]3CSSC[C@H](NC(=O)[C@H](C(C)C)NC(=O)[C@H](CC(C)C)NC(=O)[C@H](CCC4(C)N=N4)NC(=O)[C@H](CO)NC(=O)[C@H](CO)NC(=O)[C@H](CCCCN)NC(=O)[C@H](CSSC[C@H](NC(=O)[C@@H](N)CCC(=O)O)C(=O)N[C@@H](CC(C)C)C(=O)N[C@@H](CCC(=O)O)C(=O)N[C@@H]([C@@H](C)CC)C(=O)N[C@@H](Cc4ccccc4)C(=O)N[C@@H](CCCCN)C(=O)N[C@@H](C)C(=O)N3)NC2=O)C(=O)N[C@@H](CO)C(=O)N[C@@H](CCCNC(=N)N)C(=O)N[C@@H](CCCCN)C(=O)N[C@@H]([C@@H](C)O)C(=O)N[C@@H](CCCNC(=N)N)C(=O)N[C@@H](Cc2c[nH]c3ccccc23)C(=O)N1)C(N)=O` [HTMp21], the IC50 was found to be 35 nM.

Regarding `CC[C@H](C)[C@@H]1NC(=O)[C@H](CCC(=O)O)NC(=O)[C@H](CC(C)C)NC(=O)[C@@H](NC(=O)[C@@H](N)CCC(=O)O)CSSC[C@@H]2NC(=O)[C@@H]3CSSC[C@@H](C(=O)N[C@@H](CCCCN)C(=O)N[C@@H](Cc4ccc(O)cc4)C(=O)N[C@@H](CCC(N)=O)C(=O)N[C@@H](CCC4(C)N=N4)C(N)=O)NC(=O)[C@H](Cc4c[nH]c5ccccc45)NC(=O)[C@H](CCCNC(=N)N)NC(=O)[C@H]([C@@H](C)O)NC(=O)[C@H](CCCCN)NC(=O)[C@H](CCCNC(=N)N)NC(=O)[C@H](CO)NC(=O)[C@H](CSSC[C@H](NC(=O)[C@H](C)NC(=O)[C@H](CCCCN)NC(=O)[C@H](Cc4ccccc4)NC1=O)C(=O)N[C@@H](CC(N)=O)C(=O)N1CCC[C@H]1C(=O)N[C@@H](CO)C(=O)N[C@@H](CC(N)=O)C(=O)N[C@@H](CC(=O)O)C(=O)N[C@@H](CCC(N)=O)C(=O)N3)NC(=O)[C@H](C(C)C)NC(=O)[C@H](CC(C)C)NC(=O)[C@H](CCCCN)NC(=O)[C@H](CO)NC(=O)[C@H](CO)NC(=O)[C@H](CCCCN)NC2=O` [HTMp35], the IC50 was 13 nM.

In the case of `CC[C@H](C)[C@H](NC(=O)[C@H](CCC(N)=O)NC(=O)[C@H](Cc1ccc(O)cc1)NC(=O)[C@H](CCCCN)NC(=O)[C@@H]1CSSC[C@@H]2NC(=O)[C@H](CCC(N)=O)NC(=O)[C@H](CC(=O)O)NC(=O)[C@H](CC(N)=O)NC(=O)[C@H](CO)NC(=O)[C@@H]3CCCN3C(=O)[C@H](CC(N)=O)NC(=O)[C@@H]3CSSC[C@H](NC(=O)[C@H](C(C)C)NC(=O)[C@H](CC(C)C)NC(=O)[C@H](CCCCN)NC(=O)[C@H](CO)NC(=O)[C@H](CO)NC(=O)[C@H](CCCCN)NC(=O)[C@H](CSSC[C@H](NC(=O)[C@@H](N)CCC(=O)O)C(=O)N[C@@H](CC(C)C)C(=O)N[C@@H](CCC(=O)O)C(=O)N[C@@H]([C@@H](C)CC)C(=O)N[C@@H](Cc4ccccc4)C(=O)N[C@@H](CCCCN)C(=O)N[C@@H](C)C(=O)N3)NC2=O)C(=O)N[C@@H](CO)C(=O)N[C@@H](CCCNC(=N)N)C(=O)N[C@@H](CCC2(C)N=N2)C(=O)N[C@@H]([C@@H](C)O)C(=O)N[C@@H](CCCNC(=N)N)C(=O)N[C@@H](Cc2c[nH]c3ccccc23)C(=O)N1)C(N)=O` [HTMp27], the 50% inhibitory concentration (IC50) amounted to 80 nM.

A further series deals with the molecule itself. The series is described as follows: SEC; size-exclusion chromatography after anti-FLAG affinity purification, in GDN detergent.
Details: not given
For B1, the binding result is given as “binds”.
